Test results from article PMC12461739, “Multi-targeted azacoumarin–cyanocinnamate hybrids induce G2/M arrest and apoptosis via tubulin, and COX-2/VEGFR modulation: insights from in vitro mechanistic basis and in vivo validation” (RSC Medicinal Chemistry, 2025).
“And” between values parts separate entries of the source, which are not always exact repeats. Identical values can stand only once. Like-named read-outs stand apart in the source and are kept apart here.

Experiments:
α-tubulin = experiment: Western blot of α-tubulin in MCF-7 cells; assay type: cell-based, human; settings: MCF-7, 7.653 μM (IC50)
Procedure: Cells were lysed in RIPA buffer (Thermo Scientific, Cat. #89900) containing protease and phosphatase inhibitors, and lysates were centrifuged at 12 000 × g for 15 min at 4 °C. Protein concentrations were determined using the BCA assay (Thermo Scientific, Cat. #23225), and equal amounts (20–50 μg) were mixed with 2× Laemmli sample buffer (Bio-Rad, Cat. #1610737) and denatured at 95 °C for 5 min. Proteins were separated on SDS-PAGE gels (8–10% for α-tubulin, 12% for β-actin; Bio-Rad TGX™, Cat. #456-9033) and transferred to PVDF membranes (Immobilon-P, Millipore, Cat. #IPVH00010) using a wet transfer system (100 V, 1 h, 4 °C). Membranes were blocked with 5% non-fat milk in TBST for 1 h at room temperature and incubated overnight at 4 °C with anti-α-tubulin (1 : 1000, Cell Signaling Technology, Cat. #3873) and anti-β-actin (1 : 5000, Sigma-Aldrich, Cat. #A5441) antibodies. After washing, membranes were incubated with HRP-conjugated secondary antibodies ([…], Cell Signaling Technology) for 1 h at room temperature. Protein bands were visualized using the SuperSignal™ West Pico/Femto ECL substrate (Thermo Scientific, Cat. #34095) and imaged with a Bio-Rad ChemiDoc system. Band intensities were quantified by densitometry using ImageJ software and normalized to β-actin levels.[82–84]

[1] = Kidney histopathology (H&E); settings: compound 7 + EAC
Text: Additionally, liver and kidney tissues were excised from each animal for further evaluation. […] The second portion was fixed in 10% neutral buffered formalin for histopathological examination to assess tissue morphology and damage.[96,97]
Liver and kidney tissues were collected from all experimental groups at the end of the study and immediately fixed in 10% neutral buffered formalin. After fixation, the samples were dehydrated, embedded in paraffin, and sectioned at a thickness of 5 μm using a rotary microtome. […] Histopathological examination of renal tissue focused on identifying acute tubular injury (ATI), characterized by tubular epithelial cell flattening, necrosis, apical vacuolization, and loss of the brush border. These features were assessed using a semi-quantitative scoring system.[110] Hepatic tissue sections were evaluated for the severity of hepatocellular injury using a modified Brunt grading system, which includes assessment of hepatocyte ballooning, necrosis, inflammation, and other degenerative changes.

Bcl-2 = experiment: qRT-PCR gene expression, Bcl-2; assay type: cell-based, human; settings: MCF-7, 7.653 μM, 24 h
Procedure: Untreated cells served as negative controls. RNA concentration and purity were verified spectrophotometrically prior to cDNA synthesis. Complementary DNA (cDNA) was synthesized from purified RNA using the RT^2 First Strand Kit (Qiagen, Valencia, CA, USA) following the supplied protocol. Quantitative real-time PCR (qRT-PCR) was performed on a Corbett Rotor-Gene 6000 system (Qiagen, USA) using the RT^2 SYBR® Green ROX™ FAST Master Mix (Qiagen). Each 25 μL reaction contained 12.5 μL of master mix, 1 μL of gene-specific primers (RT^2 qPCR Primer Assays, Qiagen), 1 μL of cDNA template, and 10.5 μL of RNase-free water. Gene-specific primers were selected using the PrimerBank database for BAX, BCL2, and TP53, along with GAPDH as the endogenous control (Table S3). Thermal cycling conditions were set as follows: initial enzyme activation at 95 °C for 10 minutes, followed by 40 cycles of denaturation at 95 °C for 15 seconds, and annealing at 60 °C for 30 seconds. Amplification specificity was confirmed by melting curve analysis. Gene expression levels were normalized to GAPDH mRNA as the internal reference, and relative quantification was performed using the ΔΔCt method. […] Statistical analysis was performed using GraphPad Prism software, with p < 0.05 considered statistically significant.[79]

[2] = Serum liver and kidney function markers (ALT, AST, creatinine, urea)
Procedure: Blood samples were collected under light ether anesthesia via the retro-orbital venous plexus and centrifuged at 3000 rpm for 10 minutes. The resulting serum was separated and stored at −20 °C for biochemical analysis.
Serum alanine aminotransferase (ALT) and aspartate aminotransferase (AST) levels were measured as indicators of liver function using commercially available assay kits (BioVenic, NY, USA, (AST) Cat. No.: IVEK3681, (ALT) Cat. No.: IVEK3446), in accordance with the manufacturer's instructions. In the ALT assay, the enzyme catalyzes the conversion of alanine to pyruvate, which is then reduced to lactate by lactate dehydrogenase, resulting in the oxidation of NADH to NAD^+. This reaction causes a decrease in absorbance at 340 nm, which is proportional to ALT activity. Similarly, the AST assay is based on the transamination of aspartate to oxaloacetate, which then reacts with NADH in the presence of malate dehydrogenase, leading to a decrease in NADH absorbance at 340 nm. For each assay, 10 μL of serum was added to the respective substrate buffer and incubated at 37 °C for 30 minutes. The change in absorbance was recorded using a microplate reader at 340 nm. Enzymatic activities were calculated and expressed in units per liter (U L^−1). All measurements were performed in triplicate, and results are presented as mean ± SD.[98,99]
Serum creatinine and urea levels were assessed as indicators of renal function using colorimetric assay kits from BioAssay Systems (DICT-500, USA), according to the manufacturers' protocols. Creatinine concentration was determined based on a colorimetric enzymatic reaction. In this assay, creatinine is enzymatically converted to creatine and then to sarcosine, which is oxidized to produce hydrogen peroxide. The resulting hydrogen peroxide reacts with a chromogenic substrate in the presence of peroxidase to generate a colored product, the intensity of which is proportional to the creatinine concentration. Briefly, 10 μL of serum was mixed with 200 μL of working reagent, incubated at 25 °C for 5 minutes, and the absorbance was recorded at 510 nm using a microplate reader. Values were quantified against a standard curve and expressed in mg dL^−1. On the other hand, urea levels were measured based on an enzymatic reaction that produces a chromophore detectable at 340 nm. Specifically, 5 μL of serum was added to 200 μL of the assay reagent and incubated at 37 °C for 10 minutes. Absorbance was measured at 340 nm, and urea concentration was calculated using a standard curve and expressed as mg dL^−1.

MCF-7 cells = experiment: MTT antiproliferative assay, MCF-7; assay type: cell-based, human; settings: MTT, 48 h treatment, read-out: IC50, antiproliferative activity toward MCF-7
Procedure: The cytotoxic effects of the synthesized compounds were evaluated using the MTT assay. MCF-7, MDA-MB 231 (human breast cancer), and MCF-10A (non-tumorigenic breast epithelial) cells were seeded (1–3 × 10^4 cells per well) and incubated for 24 hours at 37 °C in a humidified atmosphere containing 5% CO2.[74] Following incubation, cells were treated with serial dilutions of the test compounds prepared in DMSO. The final concentration of DMSO in all wells, including controls, was maintained below 0.5% v/v to avoid solvent-related cytotoxicity. Doxorubicin was used as a positive control for comparison of antiproliferative activity. Following 48 hours of treatment, the culture medium was gently removed, and each well received 20 μL of MTT reagent (5 mg mL^−1 in phosphate-buffered saline). The plates were incubated at 37 °C for 4 hours to facilitate the enzymatic reduction of MTT into formazan by metabolically active cells. After incubation, the solution was discarded, and 100 μL of dimethyl sulfoxide was added. The absorbance of each well was measured at 570 nm using a microplate spectrophotometer. Cell viability was determined by comparing absorbance values to those of the untreated controls and expressed as a percentage. GraphPad Prism software was used to plot dose–response curves and calculate IC50 values.

In the case of `CCOC(=O)/C(C#N)=C/c1ccc(Oc2c(C)c3cc(Br)c(O)c(Br)c3[nH]c2=O)cc1` [Compound 7, ethyl (E)-2-cyano-3-(4-((6,8-dibromo-7-hydroxy-4-methyl-2-oxo-1,2-dihydroquinolin-3-yl)oxy)phenyl)acrylate], the “reduction of α-tubulin protein expression vs untreated control” value (α-tubulin) is reported as 2.7 fold, the nephropathy class [1] is reported as “class II” and the glomerular involvement ([1]; EAC group approximately 25%) is reported as 15%. The “Bcl-2 expression relative to untreated control” value (Bcl-2) was 0.312 fold, the serum creatinine ([2]; EAC + compound 7 (10 mg kg^−1 i.p.), EAC control 1.7 ± 0.04) was 0.6 ± 0.02 mg/dL and the serum urea ([2]; EAC + compound 7 (10 mg kg^−1 i.p.), EAC control 94 ± 1.78) was 44.83 ± 0.7 mg/dL. The “serum ALT” value ([2]; EAC + compound 7 (10 mg kg^−1 i.p.), EAC control 140.66 ± 3.45) was 49.83 ± 1.16 U L^−1, the “serum AST” value ([2]; EAC + compound 7 (10 mg kg^−1 i.p.), EAC control 168.33 ± 3.7) was 57.5 ± 1.56 U L^−1 and the “serum ALT” value ([2]; compound 7-control group, no EAC (10 mg kg^−1 i.p.), untreated 27.16 ± 0.94) was 22.83 ± 0.6 U L^−1. The serum creatinine ([2]; compound 7-control group, no EAC, untreated 0.5 ± 0.02) was 0.5 ± 0.03 mg/dL, the serum urea ([2]; compound 7-control group, no EAC, untreated 24.16 ± 1.07) was 21.83 ± 0.6 mg/dL and the “serum AST” value ([2]; compound 7-control group, no EAC, untreated 41.66 ± 1.3) was 37.83 ± 0.94 U L^−1. For the same compound, the IC50 (MCF-7 cells; Homo sapiens, MCF7, 48 h) was 7.65 µM and the IC50 (MCF-7 cells) was 7.65 µM and 7.6 µM.
